This is an account of results in US11304919B2, “Utilization of cilastatin in inhibiting renal disorder” (NIIGATA UNIVERSITY, priority 2018, dated 2022).

For data set [1], the target named is megalin (Mus musculus, UniProt A2ARV4). Nature of the data set: EPMA mapping of iodine in kidney tissue of kidney-specific megalin complete knockout (NDRG1-Cre) and control mice (Reference Example 2). The conditions noted are these: control (uninduced) mice; 200 μL tail vein; kidneys extracted 3 h later; FIGS. 4-9.
Sequence of megalin (Mus musculus, UniProt A2ARV4) (A2ARV4 26-4660): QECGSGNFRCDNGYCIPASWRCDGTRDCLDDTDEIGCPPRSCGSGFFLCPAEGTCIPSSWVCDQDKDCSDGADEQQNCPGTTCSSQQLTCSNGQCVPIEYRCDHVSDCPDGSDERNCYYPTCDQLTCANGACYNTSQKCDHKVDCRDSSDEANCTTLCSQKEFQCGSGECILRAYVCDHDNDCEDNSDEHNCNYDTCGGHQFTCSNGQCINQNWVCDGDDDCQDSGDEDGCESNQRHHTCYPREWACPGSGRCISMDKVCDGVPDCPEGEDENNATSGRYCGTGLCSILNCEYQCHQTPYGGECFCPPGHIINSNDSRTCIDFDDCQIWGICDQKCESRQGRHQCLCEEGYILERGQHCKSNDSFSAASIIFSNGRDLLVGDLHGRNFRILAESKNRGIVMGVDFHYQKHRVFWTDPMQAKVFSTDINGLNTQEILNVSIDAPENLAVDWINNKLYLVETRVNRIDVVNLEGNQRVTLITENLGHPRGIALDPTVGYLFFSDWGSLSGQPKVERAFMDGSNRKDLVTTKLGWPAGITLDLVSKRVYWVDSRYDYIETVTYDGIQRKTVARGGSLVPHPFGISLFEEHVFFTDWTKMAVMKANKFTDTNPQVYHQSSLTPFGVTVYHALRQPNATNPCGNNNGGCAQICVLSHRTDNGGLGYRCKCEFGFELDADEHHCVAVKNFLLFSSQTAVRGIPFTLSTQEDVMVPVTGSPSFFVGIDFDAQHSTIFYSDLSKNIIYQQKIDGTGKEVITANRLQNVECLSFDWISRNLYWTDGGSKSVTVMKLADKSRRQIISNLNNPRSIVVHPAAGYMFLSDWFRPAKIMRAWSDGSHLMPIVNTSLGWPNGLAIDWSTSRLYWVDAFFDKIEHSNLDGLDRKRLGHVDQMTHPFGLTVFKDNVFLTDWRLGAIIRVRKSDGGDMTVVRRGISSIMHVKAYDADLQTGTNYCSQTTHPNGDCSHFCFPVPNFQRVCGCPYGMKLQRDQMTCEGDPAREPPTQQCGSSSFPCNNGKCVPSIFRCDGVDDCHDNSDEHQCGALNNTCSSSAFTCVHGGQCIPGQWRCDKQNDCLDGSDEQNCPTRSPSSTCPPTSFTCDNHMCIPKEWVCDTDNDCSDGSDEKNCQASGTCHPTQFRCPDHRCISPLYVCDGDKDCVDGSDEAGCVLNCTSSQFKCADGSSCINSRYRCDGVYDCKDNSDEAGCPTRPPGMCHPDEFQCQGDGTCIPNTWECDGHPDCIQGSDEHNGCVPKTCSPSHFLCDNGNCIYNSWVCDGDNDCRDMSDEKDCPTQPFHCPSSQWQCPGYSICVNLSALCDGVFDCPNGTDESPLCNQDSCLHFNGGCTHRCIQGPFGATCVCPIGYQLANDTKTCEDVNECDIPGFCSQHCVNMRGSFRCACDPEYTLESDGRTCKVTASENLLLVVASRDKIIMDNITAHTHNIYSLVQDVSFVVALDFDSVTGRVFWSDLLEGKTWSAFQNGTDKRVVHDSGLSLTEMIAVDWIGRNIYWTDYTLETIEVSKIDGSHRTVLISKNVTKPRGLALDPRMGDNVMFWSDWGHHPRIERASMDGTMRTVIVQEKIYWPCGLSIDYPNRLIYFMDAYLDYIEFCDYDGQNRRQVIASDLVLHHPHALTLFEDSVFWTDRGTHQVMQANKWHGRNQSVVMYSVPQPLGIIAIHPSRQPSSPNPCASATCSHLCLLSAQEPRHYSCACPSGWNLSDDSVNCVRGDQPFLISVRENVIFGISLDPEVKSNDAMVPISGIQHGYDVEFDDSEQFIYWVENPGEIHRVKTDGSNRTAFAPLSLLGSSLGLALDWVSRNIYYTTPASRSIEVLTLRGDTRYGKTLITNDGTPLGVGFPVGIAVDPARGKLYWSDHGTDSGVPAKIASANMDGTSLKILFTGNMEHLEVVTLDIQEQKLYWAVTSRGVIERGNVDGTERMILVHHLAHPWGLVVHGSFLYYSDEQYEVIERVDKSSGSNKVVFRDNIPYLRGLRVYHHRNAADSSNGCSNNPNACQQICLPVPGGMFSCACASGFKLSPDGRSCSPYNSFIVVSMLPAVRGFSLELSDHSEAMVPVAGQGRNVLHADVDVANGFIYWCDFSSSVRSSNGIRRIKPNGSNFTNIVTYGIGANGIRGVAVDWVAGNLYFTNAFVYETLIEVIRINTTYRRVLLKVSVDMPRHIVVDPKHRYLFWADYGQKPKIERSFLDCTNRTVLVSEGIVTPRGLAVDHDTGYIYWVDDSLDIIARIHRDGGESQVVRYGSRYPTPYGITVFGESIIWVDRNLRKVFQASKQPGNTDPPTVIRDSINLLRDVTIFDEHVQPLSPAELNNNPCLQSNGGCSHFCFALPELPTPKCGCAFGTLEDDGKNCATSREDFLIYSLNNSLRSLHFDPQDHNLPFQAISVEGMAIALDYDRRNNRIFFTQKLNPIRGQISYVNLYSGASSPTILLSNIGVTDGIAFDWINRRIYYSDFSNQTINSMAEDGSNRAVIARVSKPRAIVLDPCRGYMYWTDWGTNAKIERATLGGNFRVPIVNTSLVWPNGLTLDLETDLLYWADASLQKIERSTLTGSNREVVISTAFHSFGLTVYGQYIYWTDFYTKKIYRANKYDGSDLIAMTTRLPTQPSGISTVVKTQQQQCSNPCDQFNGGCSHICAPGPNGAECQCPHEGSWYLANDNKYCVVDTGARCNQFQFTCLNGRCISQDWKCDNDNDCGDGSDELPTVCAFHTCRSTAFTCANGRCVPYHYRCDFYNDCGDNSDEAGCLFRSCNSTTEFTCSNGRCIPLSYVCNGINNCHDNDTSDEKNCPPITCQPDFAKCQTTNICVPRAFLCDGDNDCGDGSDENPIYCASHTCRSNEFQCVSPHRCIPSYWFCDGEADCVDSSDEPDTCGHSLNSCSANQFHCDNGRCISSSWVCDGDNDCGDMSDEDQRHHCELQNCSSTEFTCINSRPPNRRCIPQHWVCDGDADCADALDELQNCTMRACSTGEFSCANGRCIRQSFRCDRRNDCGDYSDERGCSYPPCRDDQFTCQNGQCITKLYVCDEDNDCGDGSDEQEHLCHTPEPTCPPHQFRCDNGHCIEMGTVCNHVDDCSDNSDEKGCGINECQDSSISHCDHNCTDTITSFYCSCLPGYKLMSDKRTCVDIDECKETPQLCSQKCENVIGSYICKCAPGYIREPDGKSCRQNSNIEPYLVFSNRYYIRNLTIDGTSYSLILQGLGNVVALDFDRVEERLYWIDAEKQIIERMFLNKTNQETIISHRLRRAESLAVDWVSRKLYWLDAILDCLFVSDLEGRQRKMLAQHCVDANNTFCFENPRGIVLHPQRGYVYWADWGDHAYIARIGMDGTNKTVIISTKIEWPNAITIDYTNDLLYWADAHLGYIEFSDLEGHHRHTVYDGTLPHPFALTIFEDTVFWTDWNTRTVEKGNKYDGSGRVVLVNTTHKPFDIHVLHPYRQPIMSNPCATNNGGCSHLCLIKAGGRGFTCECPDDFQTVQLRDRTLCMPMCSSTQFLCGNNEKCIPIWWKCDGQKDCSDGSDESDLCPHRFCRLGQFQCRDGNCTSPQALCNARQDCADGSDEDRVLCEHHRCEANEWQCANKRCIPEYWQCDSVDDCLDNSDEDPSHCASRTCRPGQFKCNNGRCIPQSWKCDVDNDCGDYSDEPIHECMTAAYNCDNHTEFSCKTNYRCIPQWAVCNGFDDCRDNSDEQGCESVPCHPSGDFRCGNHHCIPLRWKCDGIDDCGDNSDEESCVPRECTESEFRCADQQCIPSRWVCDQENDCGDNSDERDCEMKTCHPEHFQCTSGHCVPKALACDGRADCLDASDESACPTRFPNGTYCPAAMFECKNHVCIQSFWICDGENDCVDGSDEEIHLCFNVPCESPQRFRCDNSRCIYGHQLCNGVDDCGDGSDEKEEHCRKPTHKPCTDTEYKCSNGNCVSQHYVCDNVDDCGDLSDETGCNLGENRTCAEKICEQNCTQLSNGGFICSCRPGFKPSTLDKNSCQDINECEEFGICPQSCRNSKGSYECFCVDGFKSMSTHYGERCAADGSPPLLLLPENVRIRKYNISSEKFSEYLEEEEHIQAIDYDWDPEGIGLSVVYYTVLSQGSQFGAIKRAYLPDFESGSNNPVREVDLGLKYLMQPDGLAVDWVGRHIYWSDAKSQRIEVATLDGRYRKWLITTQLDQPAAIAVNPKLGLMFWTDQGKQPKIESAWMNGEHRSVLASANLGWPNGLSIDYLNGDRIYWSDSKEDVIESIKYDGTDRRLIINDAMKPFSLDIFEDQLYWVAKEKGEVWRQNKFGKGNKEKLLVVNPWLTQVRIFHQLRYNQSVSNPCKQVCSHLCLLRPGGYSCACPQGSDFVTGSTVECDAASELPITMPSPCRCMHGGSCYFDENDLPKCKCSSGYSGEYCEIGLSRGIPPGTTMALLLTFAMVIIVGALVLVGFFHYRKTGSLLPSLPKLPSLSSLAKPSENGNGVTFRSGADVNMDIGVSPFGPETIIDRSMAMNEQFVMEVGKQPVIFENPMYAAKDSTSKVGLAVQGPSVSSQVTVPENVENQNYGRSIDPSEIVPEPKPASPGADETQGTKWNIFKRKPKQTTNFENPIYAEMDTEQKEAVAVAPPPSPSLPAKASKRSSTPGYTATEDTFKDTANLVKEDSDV
Text: (§1) EPMA is an electron microprobe (EMP) instrument that analyzes the constituent elements of a substance of interest by irradiating electron beams onto the substance and measuring the wavelengths and intensities of characteristic X-rays unique to the different elements, which are generated by the electron beams. […] The behaviors of contrast media per se can be verified by analyzing iodine content distribution.
(§2) In order to use right kidneys for analysis, 3 mm-thick sections containing a kidney pedicle portion were prepared, embedded in OCT compound, freeze-fixed with liquid nitrogen, and stored at −80° C.
(§3) Next, the stored sections were sliced at a thickness of 4 μm using a cryostat (CM1850, Leica Biosystems), and the obtained slices were attached onto carbon-coated grids and freeze-dried overnight.
(§4) 378 μm^2 cortical areas in the prepared tissue slices were analyzed by EPMA (EPMA 1610, Shimadzu Corporation, Kyoto, Japan) to map iodine present in the structures of the contrast media.
In data set [2] the test system is megalin. Described as above. The conditions noted are these: kidney-specific megalin complete knockout mice; 200 μL tail vein; kidneys extracted 3 h later; FIGS. 4-9.
Text: as §1, §2, §3, §4
The subject of the next data set is C57BL/6J mice. The data set is described as follows: Inhibition of contrast-induced renal injuries in murine contrast nephropathy model (Example 2). The format is in vivo, mouse. How it is done: In order to confirm the ability of cilastatin to inhibit renal injuries, C57BL/6J mice were simultaneously administered with an iodinated contrast medium and cilastatin, and the results were analyzed.
Left kidneys were extracted from the C57BL/6J mice, and 14 days later, right kidney pedicles were ligated for 30 minutes. Thereafter, reperfusion was carried out. […]
a) Contrast medium+cilastatin-treated group: 200 μL of iomeprol (CM)+400 mg/kg cilastatin (CS) (100 LL) b) Contrast medium+normal saline-treated group: 200 μL of iomeprol (CM)+100 μL of NS For each of the groups, after 48 hours from the medication, blood and urine samples were collected, and serum Cr, MN and cystatin C levels, and urinary Cr, NAG and KIM-1 levels were measured. Further, right kidneys were extracted and histologically evaluated by immunostaining with KIM-1 and staining with PAS. […] Serum cystatin C and urinary KIM-1 measurements were contracted to Oriental Yeast Co., Ltd.
0.5±: Clear but weak granular staining present focally along the luminal surface of non-atrophic proximal tubules 1+: Clear but weak granular staining completely surrounding the luminal surface of non-atrophic proximal tubules 2+: Moderately intense granular staining completely surrounding the luminal surface of non-atrophic proximal tubules and extending into intercellular junctions 3+: Strong large granular staining completely surrounding the luminal surface of non-atrophic proximal tubules and extending into intercellular junctions […]
Individuals meeting these criteria were regarded as individuals with onset of contrast nephropathy.

Data set [3] concerns megalin. Nature of the data set: Contrast nephropathy model in kidney-specific megalin partial knockout mice (apoE-Cre), megalin/KIM-1 immunostaining (Reference Example 3). The conditions noted are these: 200 μL iomeprol, 48 h after administration, FIGS. 10A-10C. The format is in vivo, mouse. How it is done:
Similar murine models of contrast nephropathy to those of Reference Example 1 were constructed using kidney-specific megalin partial knockout mice (apoE-Cre), and were used to verify the involvement of megalin in the onset of contrast-induced renal injuries.
Left kidneys were extracted from the apoE-Cre knockout mice, and 14 days later, right kidney pedicles were ligated for 30 minutes. Thereafter, reperfusion was carried out. After 24 hours from the start of reperfusion, 200 μL of iomeprol or normal saline was administered from the tail vein.
The stained slices were mounted with Slow Fade Gold Antifade Reagent (Life Technologies) and observed using a fluorescence microscopy (BZ-9000, Keyence). In particular, it was verified whether megalin and KIM-1 were expressed in the S1 and S2 segments of renal proximal tubules.

On to `CN(C(=O)CO)c1c(I)c(C(=O)NCC(O)CO)c(I)c(C(=O)NCC(O)CO)c1I` (stereo not drawn) [iomeprol], for which the “iodine detected in kidney slices by EPMA, control mice” value at megalin [1] was “High concentrations of iodine were detected”. In addition, in the data set on megalin [2], the “iodine contents detected in kidney slices by EPMA, NDRG1-Cre mice versus control mice” value was “lower”. The “percentage of individuals with onset of contrast nephropathy” value in the data set on C57BL/6J mice (200 μL iomeprol + 100 μL normal saline, 48 h after medication) is 27%. The “KIM-1 expression in kidney tissue (immunostaining)” value in the data set on C57BL/6J mice (iomeprol + normal saline, individuals with increased serum creatinine, FIG. 17) is “widely expressed, mainly in the S1 and S2 segments”. In addition, the “PAS staining of kidney tissue” value in the data set with C57BL/6J mice (iomeprol + normal saline, individuals with increased serum creatinine, FIG. 19) is “formation of vacuoles in renal proximal tubular epithelial cells was observed”. Also, in the data set with megalin [3], the “KIM-1 expression relative to megalin expression in renal proximal tubular epithelial cells” value was “expressed in a specific manner in the renal proximal tubular epithelial cells with expression of megalin”.
